Measured values taken from paper PMC6133161, “Thiazoles with cyclopropyl fragment as antifungal, anticonvulsant, and anti-Toxoplasma gondii agents: synthesis, toxicity evaluation, and molecular docking study” (Medicinal Chemistry Research, 2018).
Values after ≈ are worked out from the molar mass of the structure shown.

Columns and labels:
[1] = system: C. albicans; test: Broth microdilution MIC/MFC, clinical isolate; type: cell-based; settings: Candida albicans, C. albicans clinical strain; for MFC: read-out: MFC; for MIC: read-out: MIC
From the text: (§1) In the study of antifungal activity of the compounds 3a–3j, 15 clinical strains of different species of yeasts from Candida species, namely C. albicans, C. dubliniensis C. famata, C. inconspicua, C. krusei, C. tropicalis, C. glabrata, C. lambica, C. kefyr, C. lusitaniae, C. parapsilosis, C. guilliermondii, C. lusitaniae, C. pulcherrima and C. sake were also used. These fungi were isolated by the author (from Department of Pharmaceutical Microbiology of Medical University in Lublin, Poland) from different clinical materials, e.g., from upper respiratory tract of hospitalized patients including cancer patients (i.e., with non-small cell lung cancer or hematological malignancies). Some patients were after pre-operative or post-operative chemotherapy (treated with etoposide or cis-platin given in doses according to the standard procedures), patients with chronic hepatitis C (undergoing peginterferon and ribavirin therapy or without antiviral therapy), patients with diabetes, elderly people, aged of 65 years old or older, staying in close population, such as a care centre and people staying outside the home care. The Ethical Committee of the Medical University of Lublin approved the study protocol (No. KE-0254/75/2011). The isolates were identified by standard diagnostic methods—biochemical microtest, e.g., API 20C AUX, ID 32C, API Candida (bioMérieux) on the basis of assimilation of various substrates. All the used microbial cultures were first subcultured on nutrient agar or Sabouraud agar for bacteria and fungi, respectively. The RPMI 1640 with MOPS (for fungi) were inoculated with the suspensions of fungal species. Microbial suspensions were prepared in sterile saline (0.85% NaCl) with an optical density of 0.5 McFarland standard scale (Wiegand et al. [2008]). Samples containing examined compounds were dissolved in dimethyl sulfoxide (DMSO). Furthermore, fungal suspensions were put onto Petri dishes with solid media containing 2 mg/ml of the tested compounds followed incubation under appropriate conditions. The inhibition of microbial growth was judged by comparison with a control culture prepared without any sample tested. Nystatin (Sigma) was used as a reference antifungal compound. Subsequently MIC minimal inhibitory concentration (MIC) of the compounds was examined by the microdilution broth method, using their two-fold dilutions in RPMI 1640 broth with MOPS prepared in 96-well polystyrene plates. Final concentrations of the compounds ranged from 1000 to 0.0038 µg/ml. Microbial suspensions were prepared in sterile saline with an optical density of 0.5 McFarland standard. Next fungal suspension was added per each well containing broth and various concentrations of the examined compounds. After incubation, the MIC was assessed spectrophotometric as the lowest concentration of the samples showing complete fungal growth inhibition. Appropriate DMSO, growth and sterile controls were carried out. The medium with no tested substances was used as a control (Wiegand et al. [2008]). The minimal fungicidal concentration (MFC) are defined as the lowest concentration of the compounds that is required to kill a particular fungal species. MFC was determined by removing the culture using for MIC determinations from each well and spotting onto appropriate agar medium. The plates were incubated. The lowest compounds concentration with no visible growth observed was assessed as a fungicidal concentration. All the experiments were repeated three times and representative data are presented.
(§2) The MFC/MIC ratios were calculated in order to determine fungicidal (MFC/MIC ≤ 4) or fungistatic (MFC/MIC > 4) effect of the tested compounds (O’Donnell et al. [2010]).

[2] = system: C. guilliermondii; test: Broth microdilution MIC/MFC, clinical isolate; type: cell-based; settings: Meyerozyma guilliermondii, C. guilliermondii clinical strain; for MFC: read-out: MFC; for MIC: read-out: MIC
From the text: as §1, §2

[3] = system: C. inconspicua; test: Broth microdilution MIC/MFC, clinical isolate; type: cell-based; settings: Pichia inconspicua, C. inconspicua clinical strain; for MFC: read-out: MFC; for MIC: read-out: MIC
From the text: as §1, §2

[4] = system: C. krusei; test: Broth microdilution MIC/MFC, clinical isolate; type: cell-based; settings: Pichia kudriavzevii, C. krusei clinical strain; for MFC: read-out: MFC; for MIC: read-out: MIC
From the text: as §1, §2

[5] = system: C. lusitaniae; test: Broth microdilution MIC/MFC, clinical isolate; type: cell-based; settings: Clavispora lusitaniae, C. lusitaniae clinical strain; for MFC: read-out: MFC; for MIC: read-out: MIC
From the text: as §1, §2

[6] = system: C. parapsilosis; test: Broth microdilution MIC/MFC, clinical isolate; type: cell-based; settings: Lodderomyces parapsilosis, C. parapsilosis clinical strain; for MFC: read-out: MFC; for MIC: read-out: MIC
From the text: as §1, §2

[7] = system: C. tropicalis; test: Broth microdilution MIC/MFC, clinical isolate; type: cell-based; settings: Candida tropicalis, C. tropicalis clinical strain; for MFC: read-out: MFC; for MIC: read-out: MIC
From the text: as §1, §2

[8] = system: 6-Hz psychomotor seizures; test: 6-Hz test; type: in vivo, mouse; settings: mice; for responders at 100 mg/kg: 100 mg/kg ip
Method: For in vivo tests that assessed anticonvulsant properties of the test compounds 3a-3j adult male Albino Swiss (CD-1) mice weighing between 18 and 22 g were used. The animals were housed in groups of ten mice per cage at room temperature of 22 ± 2 °C, under light/dark (12:12) cycle. The animals had free access to food and tap water before the experiments. The ambient temperature of the experimental room and humidity (50 ± 10%) were kept consistent throughout all the tests. For behavioral experiments the animals were selected randomly. Each experimental group consisted of 4-8 animals/dose. The experiments were performed between 9 AM and 2 PM. Immediately after the in vivo assay the animals were euthanized by cervical dislocation. All procedures were approved by the Local Ethics Committee of the Jagiellonian University in Krakow (34/2018, 1.02.2018)) and the treatment of animals was in full accordance with ethical standards laid down in respective Polish and EU regulations (Directive No. 86/609/EEC). For in vivo tests the compounds 3a-3j were prepared in 1% Tween 80 solution (POCH, Poland) and they were administered by the intraperitoneal route. Control mice received 1% Tween 80. Pentylenetetrazole (PTZ), pilocarpine hydrochloride and scopolamine butylbromide were provided by Sigma Aldrich (Poland). For the tests they were prepared in 0.9% saline (Polfa Kutno, Poland). PTZ and pilocarpine were administered 60 min after the test compound or vehicle. To assess anticonvulsant properties of the test compounds anticonvulsant screening was conducted. Four assays were used: PTZ, maximal electroshock seizure (MES), 6-Hz and pilocarpine tests. In these assays the dose of 100 mg/kg was chosen as a starting dose. If it turned out to be effective, a lower dose (30 mg/kg) was also tested. This test was performed according to (Barton et al. [2001]). It is an alternative electroshock paradigm that involves low-frequency (6 Hz), long-duration (3 s) electrical stimulation. Corneal stimulation (0.2 ms-duration monopolar rectangular pulses at 6 Hz for 3 s) was delivered by a constant-current device. During electrical stimulation mice were manually restrained and released into the observation cage immediately after current application. At the time of drug administration a drop of 0.5% tetracaine ([…] sterile solution, […] Pharmaceuticals Inc., USA) was applied into the eyes of all animals. Prior to the placement of corneal electrodes, a drop of 0.9% saline was applied on the eyes. In this model seizures manifest in 'stunned' posture associated with rearing, forelimb automatic movements and clonus, twitching of the vibrissae and Straub-tail. At the end of the seizure episode the animals resume their normal exploratory behavior. In this test protection against a seizure episode is considered as the end point and animals are considered to be protected if they resume their normal exploratory behavior within 10 s after electrical stimulation.

[9] = Mus musculus, read-out: X/Y number of mice protected (X) per number of mice tested (Y) (converted)

| Structure (SMILES) | MFC [1] | MIC [1] | MFC [2] | MIC [2] | MFC [3] | MIC [3] | MFC [4] | MIC [4] | MFC [5] | MIC [5] | MFC [6] | MIC [6] | MFC [7] | MIC [7] | responders at 30 mg/kg ([8]; Mus musculus, 30 mg/kg ip, read-out: X/Y number of mice protected (X) per number of mice tested (Y) (converted)) | responders at 100 mg/kg [8, 9] | animals protected from seizures ([8]; 100 mg/kg) |
| --- | --- | --- | --- | --- | --- | --- | --- | --- | --- | --- | --- | --- | --- | --- | --- | --- | --- |
| [N-]=[N+]=Nc1ccc(-c2csc(N/N=C/C3CC3)n2)cc1 [Compound 3i, (E)-4-(4-Azidophenyl)-2-(2-(cyclopropylmethylene)hydrazinyl)thiazole] | 15.6 µg/mL (≈ 54.9 µM) | 0.48 µg/mL (≈ 1.69 µM) | 15.6 µg/mL (≈ 54.9 µM) | 0.98 µg/mL (≈ 3.45 µM) | 0.98 µg/mL (≈ 3.45 µM) | 0.48 µg/mL (≈ 1.69 µM) | 7.81 µg/mL (≈ 27.5 µM) | 0.98 µg/mL (≈ 3.45 µM) | 1.95 µg/mL (≈ 6.86 µM) | 0.48 µg/mL (≈ 1.69 µM) | 0.98 µg/mL (≈ 3.45 µM) | 0.24 µg/mL (≈ 0.844 µM) | 1.95 µg/mL (≈ 6.86 µM) | 0.24 µg/mL (≈ 0.844 µM) | 25% | 75% | 75% |
| Cc1ccc(-c2csc(N/N=C/C3CC3)n2)cc1 [Compound 3d, (E)-2-(2-(Cyclopropylmethylene)hydrazinyl)-4-p-tolylthiazole] | 0.24 µg/mL (≈ 0.933 µM) | 0.12 µg/mL (≈ 0.466 µM) | 3.91 µg/mL (≈ 15.2 µM) | 0.48 µg/mL (≈ 1.87 µM) | 0.98 µg/mL (≈ 3.81 µM) | 0.12 µg/mL (≈ 0.466 µM) | 0.98 µg/mL (≈ 3.81 µM) | 0.24 µg/mL (≈ 0.933 µM) | 0.48 µg/mL (≈ 1.87 µM) | 0.12 µg/mL (≈ 0.466 µM) | 0.24 µg/mL (≈ 0.933 µM) | 0.06 µg/mL (≈ 0.233 µM) | 0.12 µg/mL (≈ 0.466 µM) | 0.06 µg/mL (≈ 0.233 µM) | – | 50% | – |
| Brc1ccc(-c2csc(N/N=C/C3CC3)n2)cc1 [Compound 3b, (E)-4-(4-Bromophenyl)-2-(2-(cyclopropylmethylene)hydrazinyl)thiazole] | 1.95 µg/mL (≈ 6.05 µM) | 0.12 µg/mL (≈ 0.372 µM) | 0.48 µg/mL (≈ 1.49 µM) | 0.12 µg/mL (≈ 0.372 µM) | 3.91 µg/mL (≈ 12.1 µM) | 0.24 µg/mL (≈ 0.745 µM) | 0.48 µg/mL (≈ 1.49 µM) | 0.24 µg/mL (≈ 0.745 µM) | 1.95 µg/mL (≈ 6.05 µM) | 0.98 µg/mL (≈ 3.04 µM) | 0.12 µg/mL (≈ 0.372 µM) | 0.12 µg/mL (≈ 0.372 µM) | 0.12 µg/mL (≈ 0.372 µM) | 0.06 µg/mL (≈ 0.186 µM) | – | 0% | – |
| COc1ccc(-c2csc(N/N=C/C3CC3)n2)cc1 [Compound 3f, (E)-2-(2-(Cyclopropylmethylene)hydrazinyl)-4-(4-methoxyphenyl)thiazole] | 0.98 µg/mL (≈ 3.59 µM) | 0.24 µg/mL (≈ 0.878 µM) | 7.81 µg/mL (≈ 28.6 µM) | 0.48 µg/mL (≈ 1.76 µM) | 0.98 µg/mL (≈ 3.59 µM) | 0.03 µg/mL (≈ 0.11 µM) | 0.015 µg/mL (≈ 0.0549 µM) | 0.015 µg/mL (≈ 0.0549 µM) | 0.48 µg/mL (≈ 1.76 µM) | 0.12 µg/mL (≈ 0.439 µM) | 0.98 µg/mL (≈ 3.59 µM) | 0.12 µg/mL (≈ 0.439 µM) | 0.98 µg/mL (≈ 3.59 µM) | 0.06 µg/mL (≈ 0.219 µM) | – | 50% | – |
| Clc1ccc(-c2csc(N/N=C/C3CC3)n2)cc1 [Compound 3c, (E)-4-(4-Chlorophenyl)-2-(2-(cyclopropylmethylene)hydrazinyl)thiazole] | 0.98 µg/mL (≈ 3.53 µM) | 0.06 µg/mL (≈ 0.216 µM) | 0.98 µg/mL (≈ 3.53 µM) | 0.24 µg/mL (≈ 0.864 µM) | 3.91 µg/mL (≈ 14.1 µM) | 0.98 µg/mL (≈ 3.53 µM) | 0.48 µg/mL (≈ 1.73 µM) | 0.12 µg/mL (≈ 0.432 µM) | 0.12 µg/mL (≈ 0.432 µM) | 0.12 µg/mL (≈ 0.432 µM) | 0.12 µg/mL (≈ 0.432 µM) | 0.03 µg/mL (≈ 0.108 µM) | 0.12 µg/mL (≈ 0.432 µM) | 0.12 µg/mL (≈ 0.432 µM) | – | 25% | – |
